# Reference: ChEMBL document CHEMBL1201862, “PubChem BioAssay data set” (2004)
# The source made the active and inactive calls.
# Legend:
# [1] = test system: Streptococcus; test: Group A Streptococcus viability loss, dose response, counter-screen for streptokinase expression inhibitor project, luminescence, BacTiterGlo (AID 1915); format: functional, organism-based;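 also: potency for reduction of bacterial viability or growth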
# [2] = cytotoxicity toward NIH3T3 fibroblasts, dose response, counter-screen, cell-based, ATP luminescence, mouse fibroblasts (AID 2010); format: functional;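 also: cells exposed to compound for about 90 hours before reading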
# [3] = test system: Streptococcus sp. 'group A'; test: growth inhibition of control SK(-) GAS strain, dose response, counter-screen for streptokinase expression inhibitor project, luminescence, kanamycin, BacTiterGlo, confirmation (AID 1900); format: functional, organism-based
# [4] = growth suppression of PTEN-null colon cells, dose response, cell-based, HCT116 PTEN knockout (AID 1047); format: functional;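 also: HCT116 colon tumor cells with PTEN knocked out; cells exposed to compound for 60 hours before readout; potency for loss of cell viability measured by luminescence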
# [5] = insulin promoter down-regulators in MIN6 cells, imaging, high-content screening, mouse beta cells (AID 1628); format: functional
# [6] = inhibitors of intracellular T. cruzi replication, confirmation, NIH3T3 host cells, beta-gal luminescence (AID 2044); format: functional, cell-based;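 also: intracellular parasites grown in NIH/3T3 mouse fibroblasts as host cells; luminescent beta-galactosidase reporter signal from transgenic T. cruzi replicating inside host cells; inhibitors lower the luminescence signal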
# [7] = target: NS3 (Hepatitis C virus, UniProt A3EZJ3); test: PubChem AID 2173; set-up: species or system Hepacivirus hominis
# [8] = cytotoxicity in MIN6 insulinoma cells, dose response, cytotoxicity control, cell-based, mouse insulinoma (AID 2122); format: functional;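 also: confirmatory high-throughput counterscreen run to flag cytotoxic compounds; mouse MIN-6 beta cells carrying an insulin promoter eGFP reporter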
# [9] = target: T1, Streptokinase A (Streptococcus pyogenes serotype M1, UniProt P10520); test: S. pyogenes streptokinase expression inhibitors, potency, dose response, plasminogen activation absorbance, OD405 (AID 1914); format: functional, Streptococcus pyogenes M1 GAS;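 also: secreted streptokinase activity via plasminogen activation per viability signal from cell pellet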
# T1 sequence (P10520 whole entry): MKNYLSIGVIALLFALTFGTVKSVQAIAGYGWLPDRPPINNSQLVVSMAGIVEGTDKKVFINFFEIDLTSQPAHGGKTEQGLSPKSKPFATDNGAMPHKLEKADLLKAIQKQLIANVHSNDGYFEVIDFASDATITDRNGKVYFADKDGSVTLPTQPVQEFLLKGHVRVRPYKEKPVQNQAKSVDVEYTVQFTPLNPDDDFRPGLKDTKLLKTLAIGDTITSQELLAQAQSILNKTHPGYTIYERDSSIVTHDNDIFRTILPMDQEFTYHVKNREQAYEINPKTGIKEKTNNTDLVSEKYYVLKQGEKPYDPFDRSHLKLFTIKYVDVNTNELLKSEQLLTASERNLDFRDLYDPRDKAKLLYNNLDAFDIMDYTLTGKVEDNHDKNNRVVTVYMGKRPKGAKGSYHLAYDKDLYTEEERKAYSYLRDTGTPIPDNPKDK
# [10] = test system: Vero; test: Vero cell cytotoxicity, cytotoxicity control for flavivirus capping enzyme inhibitors (AID 588742); format: functional; details: Chlorocebus sabaeus
# [11] = growth suppression of beta-catenin-knockout colon cells, dose response, cell-based, HCT116, human colon tumor (AID 1045); format: functional;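 also: HCT116 colon tumor cells with beta catenin knocked out; cells exposed to compound for 60 hours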
# [12] = test system: HEK293; test: cells; details: Homo sapiens
# [13] = test system: HEK293; test: cells; details: Homo sapiens; remark: listed apart in the source
# [14] = Counterscreen for AddAB inhibitors: absorbance-based bacterial cell-based high throughput dose response assay for inhibitors of bacterial viability. [Related pubchem assays (depositor defined):AID435030, AID449728, AID449731, AID488942, AID488955, AID488956]; format: functional
# [15] = target: T2, Exodeoxyribonuclease V (Escherichia coli (strain K12), UniProt P04993+P07648+P08394); test: E. coli RecBCD inhibitors, dose response, counter-screen for AddAB inhibitor project, absorbance, V66 E. coli, mutant T4 phage (AID 492957); format: functional, cell-based, Escherichia coli str. K-12 substr. MG1655
# T2 sequence (P04993 whole entry): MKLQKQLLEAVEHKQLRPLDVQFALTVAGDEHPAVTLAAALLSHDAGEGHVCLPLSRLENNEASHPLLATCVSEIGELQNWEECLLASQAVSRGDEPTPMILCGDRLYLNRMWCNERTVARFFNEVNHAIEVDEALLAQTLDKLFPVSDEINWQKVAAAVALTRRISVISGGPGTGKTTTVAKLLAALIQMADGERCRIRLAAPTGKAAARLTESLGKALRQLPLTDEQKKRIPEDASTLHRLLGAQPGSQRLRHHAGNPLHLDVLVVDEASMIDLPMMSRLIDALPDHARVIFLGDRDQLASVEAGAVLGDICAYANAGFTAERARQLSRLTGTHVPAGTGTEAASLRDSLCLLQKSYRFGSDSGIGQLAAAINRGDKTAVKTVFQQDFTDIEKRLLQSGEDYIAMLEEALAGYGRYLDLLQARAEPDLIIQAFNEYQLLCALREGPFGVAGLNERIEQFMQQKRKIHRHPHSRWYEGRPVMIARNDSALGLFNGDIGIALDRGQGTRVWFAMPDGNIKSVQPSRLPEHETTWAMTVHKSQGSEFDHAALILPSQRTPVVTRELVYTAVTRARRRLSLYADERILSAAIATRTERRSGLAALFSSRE
# T2 sequence (P07648 whole entry): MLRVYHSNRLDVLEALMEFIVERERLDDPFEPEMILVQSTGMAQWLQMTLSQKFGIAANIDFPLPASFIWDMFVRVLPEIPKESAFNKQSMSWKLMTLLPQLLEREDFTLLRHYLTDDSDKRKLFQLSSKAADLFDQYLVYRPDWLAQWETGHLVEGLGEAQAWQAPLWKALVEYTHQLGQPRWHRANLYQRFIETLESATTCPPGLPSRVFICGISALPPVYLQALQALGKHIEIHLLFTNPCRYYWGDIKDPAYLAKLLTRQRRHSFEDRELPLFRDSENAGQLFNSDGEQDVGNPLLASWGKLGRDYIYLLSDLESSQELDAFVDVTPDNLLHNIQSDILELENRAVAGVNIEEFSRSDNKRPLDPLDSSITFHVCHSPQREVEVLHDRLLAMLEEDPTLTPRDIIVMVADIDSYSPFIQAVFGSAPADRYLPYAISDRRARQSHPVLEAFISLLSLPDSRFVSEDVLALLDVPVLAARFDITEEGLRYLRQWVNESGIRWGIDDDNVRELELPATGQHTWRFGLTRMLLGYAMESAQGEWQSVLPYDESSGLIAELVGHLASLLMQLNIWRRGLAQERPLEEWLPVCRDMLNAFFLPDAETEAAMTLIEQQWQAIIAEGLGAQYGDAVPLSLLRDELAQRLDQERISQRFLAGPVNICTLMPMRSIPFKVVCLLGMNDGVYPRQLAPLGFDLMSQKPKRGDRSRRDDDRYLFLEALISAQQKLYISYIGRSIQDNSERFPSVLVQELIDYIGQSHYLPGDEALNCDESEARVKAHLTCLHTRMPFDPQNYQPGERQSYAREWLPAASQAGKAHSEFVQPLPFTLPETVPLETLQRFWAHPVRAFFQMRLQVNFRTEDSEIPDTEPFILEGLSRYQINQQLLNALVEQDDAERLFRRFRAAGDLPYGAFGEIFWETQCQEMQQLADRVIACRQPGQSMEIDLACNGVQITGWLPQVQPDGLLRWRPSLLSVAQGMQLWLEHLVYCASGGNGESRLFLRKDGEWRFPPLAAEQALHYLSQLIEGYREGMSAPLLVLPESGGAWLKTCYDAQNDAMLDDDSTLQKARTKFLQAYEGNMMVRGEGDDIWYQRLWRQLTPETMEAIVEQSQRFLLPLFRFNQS
# T2 sequence (P08394 whole entry): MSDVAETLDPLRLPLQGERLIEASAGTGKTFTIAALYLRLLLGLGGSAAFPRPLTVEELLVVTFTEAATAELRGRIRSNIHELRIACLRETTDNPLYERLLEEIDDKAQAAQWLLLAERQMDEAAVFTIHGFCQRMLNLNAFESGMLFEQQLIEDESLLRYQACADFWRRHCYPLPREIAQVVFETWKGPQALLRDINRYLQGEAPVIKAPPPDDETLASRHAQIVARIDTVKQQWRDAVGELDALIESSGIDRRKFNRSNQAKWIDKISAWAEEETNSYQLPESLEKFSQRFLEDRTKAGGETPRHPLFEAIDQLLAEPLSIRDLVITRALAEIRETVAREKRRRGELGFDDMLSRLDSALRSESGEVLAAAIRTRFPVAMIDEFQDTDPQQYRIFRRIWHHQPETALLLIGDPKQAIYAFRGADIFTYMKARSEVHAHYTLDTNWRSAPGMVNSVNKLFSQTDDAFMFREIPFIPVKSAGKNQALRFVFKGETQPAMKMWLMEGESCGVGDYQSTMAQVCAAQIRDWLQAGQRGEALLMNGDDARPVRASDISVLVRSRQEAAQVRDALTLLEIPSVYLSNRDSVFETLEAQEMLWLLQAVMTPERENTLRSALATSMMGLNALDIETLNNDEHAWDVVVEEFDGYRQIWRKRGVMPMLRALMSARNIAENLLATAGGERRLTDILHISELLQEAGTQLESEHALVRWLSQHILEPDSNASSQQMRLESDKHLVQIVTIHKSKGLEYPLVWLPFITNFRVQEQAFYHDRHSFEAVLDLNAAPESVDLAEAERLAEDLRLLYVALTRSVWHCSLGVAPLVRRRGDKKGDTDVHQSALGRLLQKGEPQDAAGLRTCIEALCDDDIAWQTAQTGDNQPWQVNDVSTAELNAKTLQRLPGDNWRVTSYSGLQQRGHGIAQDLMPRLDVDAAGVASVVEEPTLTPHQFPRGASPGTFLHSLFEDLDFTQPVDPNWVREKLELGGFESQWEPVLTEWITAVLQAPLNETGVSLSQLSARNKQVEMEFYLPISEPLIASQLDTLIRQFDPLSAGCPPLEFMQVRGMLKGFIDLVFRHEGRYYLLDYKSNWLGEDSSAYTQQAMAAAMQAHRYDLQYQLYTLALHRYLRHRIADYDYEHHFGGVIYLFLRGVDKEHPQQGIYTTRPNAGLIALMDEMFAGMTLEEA
# [16] = target: Genome polyprotein (dengue virus type 2, UniProt P29990); test: Dengue-2 NS5 methyltransferase inhibitors, primary screen, biochemical, confirmation dose response (AID 588689); format: functional
# [17] = target: T3, Zinc finger protein mex-5 (Caenorhabditis elegans, UniProt Q9XUB2); test: MEX-5/TCR-2 RNA interaction inhibitors, dose response, biochemical, C. elegans, fluorescence polarization (AID 1960)
# T3 sequence (Q9XUB2 whole entry): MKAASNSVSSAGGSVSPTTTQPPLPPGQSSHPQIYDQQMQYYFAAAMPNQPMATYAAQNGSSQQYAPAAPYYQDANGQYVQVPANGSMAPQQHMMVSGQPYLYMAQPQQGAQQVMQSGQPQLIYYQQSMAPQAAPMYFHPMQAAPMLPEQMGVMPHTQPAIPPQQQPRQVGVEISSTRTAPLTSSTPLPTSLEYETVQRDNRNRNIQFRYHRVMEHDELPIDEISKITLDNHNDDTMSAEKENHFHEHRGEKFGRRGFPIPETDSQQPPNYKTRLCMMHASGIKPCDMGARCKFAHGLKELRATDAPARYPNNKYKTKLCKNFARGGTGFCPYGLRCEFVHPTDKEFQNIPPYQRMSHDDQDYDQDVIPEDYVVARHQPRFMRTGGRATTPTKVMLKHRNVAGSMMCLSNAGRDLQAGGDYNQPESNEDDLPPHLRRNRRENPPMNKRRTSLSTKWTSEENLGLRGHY
# [18] = target: Keap1/Nrf2 (Homo sapiens, UniProt Q14145); test: Keap1-Nrf2 protein-protein interaction inhibitors, dose response, biochemical, fluorescence polarization, cherry-picked samples (AID 588683)
# [19] = target: T4, RNA-binding protein pos-1 (Caenorhabditis elegans, UniProt G5EF15); test: inhibitors of POS-1/mex-3 RNA binding, dose response, biochemical, fluorescence polarization (AID 1964);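 also: purified POS-1 fused to maltose binding protein made in E. coli; potency of compounds blocking POS-1 binding to fluorescent RNA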
# T4 sequence (G5EF15 whole entry): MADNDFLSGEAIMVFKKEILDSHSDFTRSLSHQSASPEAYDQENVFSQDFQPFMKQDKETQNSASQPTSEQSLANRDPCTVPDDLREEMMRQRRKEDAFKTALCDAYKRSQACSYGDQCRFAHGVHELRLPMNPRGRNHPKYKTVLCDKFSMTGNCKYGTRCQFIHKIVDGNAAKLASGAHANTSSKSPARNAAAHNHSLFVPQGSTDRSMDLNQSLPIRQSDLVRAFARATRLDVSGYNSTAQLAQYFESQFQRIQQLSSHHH
# Sequence of Genome polyprotein (P29990 2492-3391 limits assumed): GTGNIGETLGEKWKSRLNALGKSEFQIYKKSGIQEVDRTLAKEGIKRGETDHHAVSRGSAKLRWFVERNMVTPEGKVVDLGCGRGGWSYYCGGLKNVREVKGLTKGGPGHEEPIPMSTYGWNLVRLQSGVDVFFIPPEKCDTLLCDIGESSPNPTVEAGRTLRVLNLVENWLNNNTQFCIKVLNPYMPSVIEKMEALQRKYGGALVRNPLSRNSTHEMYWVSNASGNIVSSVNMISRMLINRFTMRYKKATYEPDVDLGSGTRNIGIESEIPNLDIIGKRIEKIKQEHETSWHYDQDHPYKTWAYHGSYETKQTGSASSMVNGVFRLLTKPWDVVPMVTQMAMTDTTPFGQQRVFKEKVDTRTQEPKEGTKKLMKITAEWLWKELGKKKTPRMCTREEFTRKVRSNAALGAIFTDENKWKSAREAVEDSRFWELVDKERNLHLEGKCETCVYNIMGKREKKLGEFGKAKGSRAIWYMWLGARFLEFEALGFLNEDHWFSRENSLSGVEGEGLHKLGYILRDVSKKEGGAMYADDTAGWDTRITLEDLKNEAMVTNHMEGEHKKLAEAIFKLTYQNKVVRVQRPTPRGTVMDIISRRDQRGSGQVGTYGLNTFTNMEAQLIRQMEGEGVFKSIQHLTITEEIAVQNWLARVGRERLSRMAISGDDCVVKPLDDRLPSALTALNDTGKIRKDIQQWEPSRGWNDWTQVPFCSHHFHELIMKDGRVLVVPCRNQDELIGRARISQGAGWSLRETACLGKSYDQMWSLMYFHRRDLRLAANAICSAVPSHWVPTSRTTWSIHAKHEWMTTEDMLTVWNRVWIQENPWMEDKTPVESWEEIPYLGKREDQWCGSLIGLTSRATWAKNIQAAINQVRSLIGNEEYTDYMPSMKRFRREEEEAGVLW
# Sequence of NS3 (A3EZJ3 whole entry): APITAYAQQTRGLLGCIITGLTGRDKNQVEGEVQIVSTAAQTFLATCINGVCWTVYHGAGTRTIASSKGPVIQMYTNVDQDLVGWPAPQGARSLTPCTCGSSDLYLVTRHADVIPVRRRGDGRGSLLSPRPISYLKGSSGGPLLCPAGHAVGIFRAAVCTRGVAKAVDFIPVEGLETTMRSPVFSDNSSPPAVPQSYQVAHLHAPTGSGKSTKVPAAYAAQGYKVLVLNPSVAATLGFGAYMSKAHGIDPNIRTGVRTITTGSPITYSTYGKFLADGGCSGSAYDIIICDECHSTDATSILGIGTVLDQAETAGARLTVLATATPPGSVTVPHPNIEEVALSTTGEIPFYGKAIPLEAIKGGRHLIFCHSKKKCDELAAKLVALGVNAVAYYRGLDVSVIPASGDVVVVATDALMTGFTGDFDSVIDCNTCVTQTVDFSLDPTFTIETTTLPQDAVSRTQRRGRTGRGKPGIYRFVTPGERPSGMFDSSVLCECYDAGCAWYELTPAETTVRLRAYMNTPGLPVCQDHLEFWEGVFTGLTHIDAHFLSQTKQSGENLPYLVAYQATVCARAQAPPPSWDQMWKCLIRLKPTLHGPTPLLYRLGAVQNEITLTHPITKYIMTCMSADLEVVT
# Sequence of Keap1/Nrf2 (Q16236 whole entry, the tested form may be a part): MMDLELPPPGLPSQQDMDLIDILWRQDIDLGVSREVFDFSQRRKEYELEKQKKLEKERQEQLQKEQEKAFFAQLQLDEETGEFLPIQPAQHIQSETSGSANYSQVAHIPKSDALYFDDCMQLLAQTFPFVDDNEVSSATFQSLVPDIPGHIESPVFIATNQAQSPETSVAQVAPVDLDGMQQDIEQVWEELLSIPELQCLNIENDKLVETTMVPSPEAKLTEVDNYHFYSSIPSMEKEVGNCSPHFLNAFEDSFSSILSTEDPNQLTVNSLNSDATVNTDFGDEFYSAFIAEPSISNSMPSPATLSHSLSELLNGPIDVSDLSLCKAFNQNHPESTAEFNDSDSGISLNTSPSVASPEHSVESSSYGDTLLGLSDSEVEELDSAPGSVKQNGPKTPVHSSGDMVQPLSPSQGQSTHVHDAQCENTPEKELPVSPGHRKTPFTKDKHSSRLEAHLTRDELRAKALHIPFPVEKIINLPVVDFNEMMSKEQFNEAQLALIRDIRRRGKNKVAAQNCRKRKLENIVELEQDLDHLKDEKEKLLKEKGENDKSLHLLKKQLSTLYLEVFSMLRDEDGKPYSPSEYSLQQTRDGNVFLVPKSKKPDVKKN
# Sequence of Keap1/Nrf2 (Q14145 whole entry, the tested form may be a part): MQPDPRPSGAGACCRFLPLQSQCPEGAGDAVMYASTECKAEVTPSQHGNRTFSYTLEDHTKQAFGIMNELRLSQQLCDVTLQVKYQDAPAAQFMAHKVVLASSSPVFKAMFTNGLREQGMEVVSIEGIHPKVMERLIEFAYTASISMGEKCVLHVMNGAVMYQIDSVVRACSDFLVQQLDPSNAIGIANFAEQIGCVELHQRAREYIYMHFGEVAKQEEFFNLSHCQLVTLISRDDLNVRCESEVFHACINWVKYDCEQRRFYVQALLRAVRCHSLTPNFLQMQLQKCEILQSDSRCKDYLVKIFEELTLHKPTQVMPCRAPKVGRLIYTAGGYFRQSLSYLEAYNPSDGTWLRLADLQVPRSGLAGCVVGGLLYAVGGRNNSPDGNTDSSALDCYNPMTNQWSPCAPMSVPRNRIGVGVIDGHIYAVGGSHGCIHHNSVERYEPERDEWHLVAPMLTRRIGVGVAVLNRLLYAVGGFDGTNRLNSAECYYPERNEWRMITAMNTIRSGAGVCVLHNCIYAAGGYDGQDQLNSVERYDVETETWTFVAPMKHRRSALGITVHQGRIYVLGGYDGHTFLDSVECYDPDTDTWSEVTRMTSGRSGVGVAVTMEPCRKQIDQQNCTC
smiles,measurement,setting,value
O=C(/C=C/c1ccccc1Cl)c1ccccc(=O)c1O,EC50,[1],9.56 µM (active)
same,EC50,[2],6.37 µM (active)
same,EC50,[3],1.61 µM (active)
same,EC50,[4],1.29 µM (active)
same,IC50,[5],3.72 µM (active)
same,EC50,[6],1.22 µM (active)
same,IC50,[7],4.49 µM (active)
same,IC50,[8],4.43 µM (active)
same,EC50,[9],> 150 µM (not active)
same,CC50,[10],9.47 µM (active)
same,EC50,[11],1.07 µM (active)
Cc1cccc(C2CC(c3ccccc3)Nc3ncnn32)c1 (stereo unspecified),EC50,[12],> 59.6 µM (inactive)
same,EC50,[13],> 59.6 µM (inactive)
CC(Sc1ccsc1[N+](=O)[O-])C(=O)NCc1ccco1 (stereo unspecified),IC50,[14],> 119 µM (inactive)
same,IC50,[15],> 119 µM (inactive)
Cc1c(N)cc(N)cc1C(=O)O,IC50,[16],> 100 µM (active)
same,EC50,[17],27.7 µM (active)
same,AC50,[18],> 52 µM (inactive)
same,EC50,[19],> 300 µM (not active)
CC(=O)OCC(=O)[C@@]1(O)CC[C@H]2[C@@H]3CCC4=CC(=O)C=C[C@]4(C)[C@@]3(Cl)[C@@H](Cl)C[C@@]21C [DICHLORISONE ACETATE],IC50,[5],< 0.25 µM (active)
same,IC50,[8],> 16 µM (inactive)
